Reference: patent publication US9624167B2, “N-(4-hydroxy-4-methyl-cyclohexyl)-4-phenyl-benzenesulfonamides and N-(4-hydroxy-4-methyl-cyclohexyl)-4-(2-pyridyl)benzenesulfonamides and their therapeutic use” (PIMCO 2664 LIMITED, priority 2013, dated 2017)
Like-named read-outs stand apart in the source and are kept apart here.

Assays:
[1] = tested on: GADD45a-GFP reporter in TK6 human lymphoblastoid cell line; assay: GreenScreen HC genotoxicity (GADD45a-GFP reporter); type: cell-based; settings: GreenScreen HC, positive or negative
Text: (§1) GreenScreen HC is a mammalian cell-based assay for measuring the genotoxicity and cytotoxicity of chemical compounds and mixtures.
The term genotoxic is used to describe substances that are capable of causing damage to genetic material (DNA) within a cell, which may ultimately have mutagenic, carcinogenic or teratogenic effects in humans.
The GreenScreen assay reports genotoxic stress as an increase in fluorescence from a genetically modified derivative of the p53-competent TK6 human lymphoblastoid cell line. In the modified cells, regulatory DNA sequences which promote the transcription of the GADD45a gene control the expression of Green Fluorescent Protein (GFP). GADD45a has a central role in genomic integrity, and genotoxic stress induces its transcription. Exposure to a genotoxic compound therefore increases the expression of GFP, which is observed as an increase in fluorescence and which is monitored by fluorescent detection using a plate reader or flow cytometer. In the GreenScreen HC assay fluorescence is normalised to the optical absorbance measurement to correct for variation in cell yield caused by loss of cell viability or cytotoxicity. The statistically defined threshold for a positive result in the GreenScreen HC assay is 1.5, i.e., 50% induction over and above the baseline for the vehicle-treated control.
(§2) A dilution series of each test compound is generated in parallel in a 96-well, black microplate with an optically clear base. A standard genotoxic compound (methyl methanesulfonate, MMS) is added as an intra-plate quality control check. The plates are analysed at 24 hour and 48 hour time points using a microplate reader, which provides measurements of light absorbance and fluorescence for cells and solutions in the microplates wells.
(§3) In addition to measurements of cell viability and genotoxicity described above, the GreenScreen assay incorporates an assessment of the effects of metabolic activation in the assay, the “GreenScreen HC S9 assay”. To accomplish this, the cells are incubated both in the presence of and absence of the post-mitochondrial supernatant liver extract (known as “S9”). S9 is routinely used in genetic toxicology to supplement the test cells with mammalian phase I metabolism. To assess metabolic activation, compounds are incubated with the TK6 strain in the presence of 1% v/v S9 fraction mix for 3 hours with a subsequent 45 hour recovery time. After the recovery period, the GFP fluorescence signal and cell viability (assessed by propidium iodide uptake) are measured using a flow cytometer. Cyclophosphamide, a commonly used control in genotoxicity studies utilising metabolic activation, is used as the positive control in the assay. In the GreenScreen HC S9 assay, genotoxicity is evaluated by induction in GFP expression quantified using the mean sample fluorescence and cytotoxicity using the propidium iodide uptake assay described above. The statistically defined threshold for a positive genotoxicity result is 1.3, i.e. 30% induction over and above the baseline for the vehicle-treated control and the result is reported as positive or negative. Cytotoxic compounds are those that show an observed decrease in relative population survival below a significance threshold set at 90% compared to vehicle-treated control, at one or more test concentrations.
(§4) Stably transfected reporter cell lines were derived from the p53-competent human lymphoblastoid TK6 cell line. The reporter cell line carries an episomally replicating plasmid bearing the upstream promoter region and other regulatory sequences of the human GADD45a gene linked to a human optimised Green Fluorescent Protein (GFP) gene. The control cell line carries an identical plasmid except for the removal of 4 base pairs at the start of the EGFP gene, such that GFP is not produced. […]

[2] = tested on: TK6 human lymphoblastoid cell line; assay: GreenScreen HC cytotoxicity (propidium iodide uptake); type: cell-based; settings: for Cytotoxicity, LEC, 48 h, −S9: absence of S9 fraction; for Cytotoxicity, LEC, 48 h, +S9: presence of S9 fraction; for Cytotoxicity, LEC, 24 h: lowest effective concentration for loss of cell viability
Procedure: as §1
Cytotoxicity is measured in the GreenScreen assay alongside genotoxicity and the results of the cytotoxicity assessment are used to normalise the genotoxicity measurements as described above.
In the GreenScreen HC assay, cell viability is assessed using a propidium iodide uptake assay. Propidium iodide is an intercalating agent and a fluorescent molecule that can be used to stain cells. It is commonly used to quantitatively assess DNA content to evaluate cell viability or DNA content in cell cycle analysis and can be used to differentiate necrotic, apoptotic and normal cells (see, e.g., Dengler et al., 1995, Anticancer Drugs, Vol. 6, No. 4, pp. 522-532). Exposure to a cytotoxic compound increases the uptake of propidium iodide, which is monitored by optical absorbance and is proportional to […]. Cytotoxic compounds are those that show an observed decrease in relative population survival below a significance threshold set at 90% compared to vehicle-treated control, at one or more test concentrations.
as §2, §3
as §4, with “produced. Both plasmids also carry a gene conferring resistance to hygromycin B to the cell line, allowing continued selection for plasmid presence (200 μg/mL hygromycin B; Invitrogen Corporation, Carlsbad, Calif.).” for “produced.”

[3] = Human Liver Microsomal Stability; type: in vitro ADME; settings: both sexes, pooled liver microsomes, 1 μM compound
Procedure: Metabolic stability was measured by determining the rate of disappearance of compound in the presence of human liver microsomal preparations, as quantified by liquid chromatography mass-spectrometry and […] mass-spectrometry (LC-MS/MS).
Metabolic stability of test compounds was measured by determination of the rate of disappearance of the compound when incubated in the presence of human liver microsomes. Liver microsomes are prepared from the endoplasmic reticulum of hepatocytes and are the primary source of the most important enzymes (cytochrome P450s) involved in drug metabolism. Study of drug stability in the presence of liver microsomes is accepted as a valuable model permitting rapid prediction of in vivo drug stability.
Human liver microsomes were obtained from a commercial source. Test compounds (1 μM) were incubated with pooled liver microsomes (male and female). Samples were incubated for a 60 minute period and removed at up to 6 time points and analysed by LC-MS/MS for the presence/amount of test compounds.
Microsomes (final protein concentration 0.25 or 0.5 mg/mL), 0.1 M phosphate buffer pH 7.4, and test compound (final concentration 1 μM; diluted from 10 mM stock solution to give a final DMSO concentration of 0.1%) were incubated at 37° C. prior to the addition of Nicotinamide adenine dinucleotide phosphate (NADPH, final concentration 1 mM) to initiate the reaction. The final incubation volume was 100 μL. A control incubation was included for each compound tested, where 0.1 M phosphate buffer pH 7.4 was added instead of NADPH. […]
Each compound was incubated for 0, 5, 15, 30, 45 or 60 minutes. The reactions were stopped by the addition of 100 μL ice-cold acetonitrile containing internal standard (0.001 mM glipizide) at the appropriate time points. The incubation plates were centrifuged at 4000 rpm for 15 minutes at 4° C. to precipitate the protein and 0.1 mL aliquots were analysed using LC-MS/MS, with the conditions shown in the following table.
From a plot of the natural logarithm of the peak area ratio (i.e., the ratio of compound peak area:internal standard peak area) against time, the gradient of the line was determined.

[4] = pH 7.4, human liver microsomes 0.25 mg/mL protein, 5 time points 0-60 min, one replicate, read-out: T1/2 (1)
[5] = pH 7.4, human liver microsomes 0.5 mg/mL protein, 6 time points 0-60 min, two replicates, read-out: T1/2 (2)

| Structure (SMILES) | Genotoxicity [1] | Cytotoxicity, LEC, 48 h, −S9 [2] | Cytotoxicity, LEC, 48 h, +S9 [2] | Cytotoxicity, LEC, 24 h [2] | half-life at 1 μM [3, 4] | half-life at 1 μM [3, 5] |
| --- | --- | --- | --- | --- | --- | --- |
| Cc1cc(S(=O)(=O)NC2CCC(C)(O)CC2)ccc1-c1ccc(F)cc1F (single isomer, unassigned) [REF001, reference compound] | Positive | 0.039 µM | 0.63 µM | 0.039 µM | 0.717 h |  |
| C[C@]1(O)CC[C@H](NS(=O)(=O)c2ccc(-c3ccc(F)cc3C(F)(F)F)cc2)CC1 [HMC-C-02-A, 4′-Fluoro-N-((1r,4r)-4-hydroxy-4-methylcyclohexyl)-2′-(trifluoromethyl)biphenyl-4-sulfonamide] | Negative | 60 µM | 120 µM | >1000 µM | 0.917 h |  |
| C[C@]1(O)CC[C@H](NS(=O)(=O)c2ccc(-c3c(F)cc(F)cc3F)cc2)CC1 [HMC-C-03-A, 2′,4′,6′-Trifluoro-N-((1r,4r)-4-hydroxy-4-methylcyclohexyl)biphenyl-4-sulfonamide] | Negative | 0.06 µM | 15 µM | 0.24 µM | 1.4 h |  |
| C[C@]1(O)CC[C@H](NS(=O)(=O)c2ccc(-c3ncc(F)cc3F)cc2)CC1 [HMC-N-02-A, 4-(3,5-Difluoropyridin-2-yl)-N-((1r,4r)-4-hydroxy-4-methylcyclohexyl)benzenesulfonamide] | Negative | 0.47 µM | 120 µM | 0.94 µM | 6.12 h |  |
| C[C@]1(O)CC[C@H](NS(=O)(=O)c2ccc(-c3ncc(Cl)cc3Cl)c(F)c2)CC1 [HMC-N-04-A, 4-(3,5-Dichloropyridin-2-yl)-3-fluoro-N-((1r,4r)-4-hydroxy-4-methylcyclohexyl)benzenesulfonamide] | Negative | 0.12 µM | 30 µM | 0.47 µM | 2.6 h |  |
| C[C@]1(O)CC[C@H](NS(=O)(=O)c2ccc(-c3ccc(F)cc3F)c(F)c2)CC1 [HMC-C-04-A, 2,2′,4′-Trifluoro-N-((1r,4r)-4-hydroxy-4-methylcyclohexyl)-[1,1′-biphenyl]-4-sulfonamide] |  |  |  |  |  | 1.67 h |
| C[C@]1(O)CC[C@@H](NS(=O)(=O)c2ccc(-c3ncc(Cl)cc3Cl)cc2)CC1 [HMC-N-03-B, 4-(3,5-Dichloropyridin-2-yl)-N-((1s,4s)-4-hydroxy-4-methylcyclohexyl)benzenesulfonamide] |  |  |  |  |  | 1.17 h |
| C[C@]1(O)CC[C@@H](NS(=O)(=O)c2ccc(-c3ncc(F)cc3F)c(F)c2)CC1 [HMC-N-01-B, 4-(3,5-Difluoropyridin-2-yl)-3-fluoro-N-((1s,4s)-4-hydroxy-4-methylcyclohexyl)benzenesulfonamide] | Negative | 0.05 µM | 5.85 µM | 0.01 µM |  | 2.12 h |
| C[C@]1(O)CC[C@@H](NS(=O)(=O)c2ccc(-c3ccc(F)cc3F)c(F)c2)CC1 [HMC-C-04-B, 2,2′,4′-Trifluoro-N-((1s,4s)-4-hydroxy-4-methylcyclohexyl)-[1,1′-biphenyl]-4-sulfonamide] |  |  |  |  |  | 1.78 h |
| Cc1cc(S(=O)(=O)N[C@H]2CC[C@H](O)CC2)ccc1-c1ccc(F)cc1F [ABD735] | Negative | 0.31 µM | 5 µM | 0.31 µM | 8.73 h |  |
| C[C@]1(O)CC[C@H](NS(=O)(=O)c2ccc(-c3ccc(F)cc3F)cc2)CC1 [ABD900, reference compound] | Negative | 0.07 µM | 74.1 µM | 0.29 µM |  | 1.45 h |
| O=S(=O)(N[C@H]1CC[C@H](O)CC1)c1ccc(-c2ncc(Cl)cc2Cl)cc1 [ABD836, reference compound] | Positive | 0.01 µM | 40 µM | 0.04 µM | > 15 h |  |
| C[C@]1(O)CC[C@@H](NS(=O)(=O)c2ccc(-c3c(F)cc(F)cc3F)cc2)CC1 [HMC-C-03-B, 2′,4′,6′-Trifluoro-N-((1s,4s)-4-hydroxy-4-methylcyclohexyl)-[1,1′-biphenyl]-4-sulfonamide] | Positive | 0.08 µM | 10.8 µM | 0.17 µM |  | 0.8 h |
| C[C@]1(O)CC[C@@H](NS(=O)(=O)c2ccc(-c3ccc(Cl)cc3C#N)cc2)CC1 [HMC-C-01-B, 4′-Chloro-2′-cyano-N-((1s,4s)-4-hydroxy-4-methylcyclohexyl)-[1,1′-biphenyl]-4-sulfonamide] | Negative | 0.005 µM | 4.82 µM | 0.08 µM |  | 1.17 h |
| C[C@]1(O)CC[C@@H](NS(=O)(=O)c2ccc(-c3ccc(F)cc3C(F)(F)F)cc2)CC1 [HMC-C-02-B, 4′-Fluoro-N-((1s,4s)-4-hydroxy-4-methylcyclohexyl)-2′-(trifluoromethyl)-[1,1′-biphenyl]-4-sulfonamide] |  |  |  |  |  | 0.3 h |
